{"source": "patent US6563024B1", "about": "“Process for transformation of mature trees of Eucalyptus plants” (OJI Paper Co., Ltd., priority 1999, dated 2003)", "key": {"[1]": {"system": "precocious branches of Eucalyptus camaldulensis", "experiment": "Transgenic calli formation after infection induction treatment of precocious branches with NAA, then Agrobacterium tumefaciens EHA101/pIG121-Hm infection", "type": "cell-based", "settings": "30 days", "method": "Culturing was performed for 7 to 14 days at a temperature of 26 to 28° C. under dark conditions. After cutting the precocious branches subjected to the infection induction treatment to segments of 2 to 10 mm length with a knife, the segments were immersed in the culture medium of Agrobacterium tumefaciens strain EHA101/pIG121-Hm prepared according to the method described above. After wiping off the culture medium adhered to the segments of the precocious branches with filter paper, the sections of the precocious branches were embedded in an infection medium containing 2 mg/l NAA, 0.2 mg/l 4-PU, 1 mM galactose, 10 μM acetosyringone, 3% sucrose and 0.02% gellan gum in B5 basal medium, followed by stationary-culturing for 2 days at a temperature of 26° C. and under dark conditions to infect the precocious branches with Agrobacterium tumefaciens. With the exception of inducing precocious branches from three Eucalyptus camaldulensis plants, and performing infection induction treatment with the concentration of NAA in the precocious branch infection induction medium at 0, 0.02, 0.2 or 2.0 mg/l, the precocious branches were infected with Agrobacterium tumefaciens strain EHA101/pIG121-Hm in the same manner as described in Example 1, and the number of transgenic calli that express intron GUS gene was investigated 30 days after the start of the infection induction treatment. For plant 1, the case of testing precocious branches of the untreated group on which infection treatment was not performed, transformation efficiency of 23.1% was obtained. […] In addition, in the untreated group of plant 2 as well in which infection was difficult, transgenic calli were observed following infection induction by NAA. One the basis of these findings, infection induction treatment of precocious branches was clearly shown to be effective in improving transformation efficiency."}, "[2]": {"system": "precocious branches of Eucalyptus camaldulensis", "experiment": "Transgenic calli formation with varied NAA concentration in infection medium and sterilization medium", "type": "cell-based", "settings": "4-PU 0.2 mg/l", "method": "After cutting the precocious branches subjected to the infection induction treatment to segments of 2 to 10 mm length with a knife, the segments were immersed in the culture medium of Agrobacterium tumefaciens strain EHA101/pIG121-Hm prepared according to the method described above. After wiping off the culture medium adhered to the segments of the precocious branches with filter paper, the sections of the precocious branches were embedded in an infection medium containing 2 mg/l NAA, 0.2 mg/l 4-PU, 1 mM galactose, 10 μM acetosyringone, 3% sucrose and 0.02% gellan gum in B5 basal medium, followed by stationary-culturing for 2 days at a temperature of 26° C. and under dark conditions to infect the precocious branches with Agrobacterium tumefaciens. The explant segments treated as described above were transplanted to a sterilization medium containing 2 mg/l NAA, 0.2 mg/l 4-PU or 4CPPU, 3% sucrose, and 500 mg/l of carbenicillin as antibiotic for sterilizing Agrobacterium attached to the explant segments, and were vertical-rotary-cultured for 7 - days at a temperature of 26° C. and rotating speed of 2 rpm under dark conditions to sterilize the Agrobacterium tumefaciens. With the exception of inducing precocious branches from a different plant of Eucalyptus camaldulensis, and the NAA concentrations used in the infection medium and sterilization medium, the precocious branches were infected with agrobacterium tumefaciens strain EHA101/pIG121-Hm in the same manner as described in Example 1 to produce transgenic calli."}}, "note": "“And” between values parts separate entries of the source, which are not always exact repeats. Equal values may be shown once."}
{"smiles": "O=C(O)Cc1cccc2ccccc12", "note": "[NAA, naphthaleneacetic acid]", "values": [{"measurement": "Transformation efficiency = No. of transgenic calli/No. of tested segments × 100", "setting": "[1]; plant No. 1, NAA 0.02 mg/l in infection induction medium", "result": "72.9% and 73%"}, {"measurement": "Transformation efficiency = No. of transgenic calli/No. of tested segments × 100", "setting": "[1]; plant No. 1, NAA 0.2 mg/l in infection induction medium", "result": 64, "unit": "%"}, {"measurement": "Transformation efficiency = No. of transgenic calli/No. of tested segments × 100", "setting": "[1]; plant No. 1, NAA 2.0 mg/l in infection induction medium", "result": 49, "unit": "%"}, {"measurement": "Transformation efficiency = No. of transgenic calli/No. of tested segments × 100", "setting": "[1]; plant No. 2, NAA 0.02 mg/l in infection induction medium", "result": 8, "unit": "%"}, {"measurement": "Transformation efficiency = No. of transgenic calli/No. of tested segments × 100", "setting": "[1]; plant No. 2, NAA 0.2 mg/l in infection induction medium", "result": 31, "unit": "%"}, {"measurement": "Transformation efficiency = No. of transgenic calli/No. of tested segments × 100", "setting": "[1]; plant No. 2, NAA 2.0 mg/l in infection induction medium", "result": 19, "unit": "%"}, {"measurement": "Transformation efficiency = No. of transgenic calli/No. of tested segments × 100", "setting": "[1]; plant No. 3, NAA 0.02 mg/l in infection induction medium", "result": 69, "unit": "%"}, {"measurement": "Transformation efficiency = No. of transgenic calli/No. of tested segments × 100", "setting": "[1]; plant No. 3, NAA 0.2 mg/l in infection induction medium", "result": 38, "unit": "%"}, {"measurement": "Transformation efficiency = No. of transgenic calli/No. of tested segments × 100", "setting": "[1]; plant No. 3, NAA 2.0 mg/l in infection induction medium", "result": 59, "unit": "%"}, {"measurement": "Transformation efficiency", "setting": "[2]; infection medium NAA 0.02 mg/l, sterilization medium NAA 0.02 mg/l", "result": 14, "unit": "%"}, {"measurement": "Transformation efficiency", "setting": "[2]; infection medium NAA 0.02 mg/l, sterilization medium NAA 2 mg/l", "result": 4, "unit": "%"}, {"measurement": "Transformation efficiency", "setting": "[2]; infection medium NAA 2 mg/l, sterilization medium NAA 0.02 mg/l", "result": 11, "unit": "%"}, {"measurement": "Transformation efficiency", "setting": "[2]; infection medium NAA 2 mg/l, sterilization medium NAA 2 mg/l", "result": 42, "unit": "%"}]}
